In ChEMBL document CHEMBL4038270, “Synthesis of heterocyclic ring-fused tricyclic diterpene analogs as novel inhibitors of RANKL-induced osteoclastogenesis and bone resorption” (Eur J Med Chem, 2017):
pIC50: −log10 of the molar value.

Legend:
[1] = Inhibition of RANKL-induced C57BL/6 mouse bone marrow monocytes differentiation into osteoclasts at 2 uM after 6 days in presence of M-CSF by tartrate-resistant acid phosphatase staining based assay relative to control; assay type: functional; conditions: C57BL/6, Bone marrow monocyte, 144 h
[2] = Inhibition of RANKL-induced C57BL/6 mouse bone marrow monocytes differentiation into osteoclasts at 0.5 uM after 6 days in presence of M-CSF by tartrate-resistant acid phosphatase staining based assay relative to control; assay type: functional; conditions: C57BL/6, Bone marrow monocyte, 144 h
[3] = Inhibition of RANKL-induced C57BL/6 mouse bone marrow monocytes differentiation into osteoclasts at 10 uM after 6 days in presence of M-CSF by tartrate-resistant acid phosphatase staining based assay relative to control; assay type: functional; conditions: C57BL/6, Bone marrow monocyte, 144 h
[4] = Inhibition of RANKL-induced C57BL/6 mouse bone marrow monocytes differentiation into osteoclasts after 6 days in presence of M-CSF by tartrate-resistant acid phosphatase staining based assay; assay type: functional, cell-based; conditions: C57BL/6, Bone marrow monocyte, 144 h
[5] = Inhibition of RANKL-induced C57BL/6 mouse bone marrow monocytes differentiation into osteoclasts at 0.1 uM after 6 days in presence of M-CSF by tartrate-resistant acid phosphatase staining based assay relative to control; assay type: functional; conditions: C57BL/6, Bone marrow monocyte, 144 h
[6] = Inhibition of RANKL-induced C57BL/6 mouse bone marrow macrophage differentiation into osteoclasts in presence of M-CSF by tartrate-resistant acid phosphatase staining based assay; assay type: functional, cell-based; conditions: C57BL/6, BMDM
[7] = Potency index, ratio of maslinic acid IC50 to compound IC50 for RANKL-induced C57BL/6 mouse bone marrow monocytes differentiation into osteoclasts; assay type: functional, Bone marrow monocyte

pIC50 [4]	pIC50 [6]	SMILES	inhibition at 2 µM [1]	inhibition at 0.5 µM [2]	inhibition at 10 µM [3]	inhibition at 0.1 µM [5]	Ratio IC50 [7]
5.12		COc1ccc2c(c1)[C@@]1(C)Cc3cnoc3C(C)(C)[C@@H]1CC2	15.9%	1.5%	59.1%		
		COc1cc2c(cc1C(C)=O)CC[C@H]1C(C)(C)c3oc(C)nc3C[C@]21C	100%	64.5%		30.6%	
		COc1ccc2c(c1)[C@@]1(C)Cc3snnc3C(C)(C)[C@@H]1CC2	76.8%	66.7%	97.2%		
		COc1cc2c(cc1NC(C)=O)CC[C@H]1C(C)(C)c3oc(C)nc3C[C@]21C	66.1%	44.1%		26.9%	
		COc1cc2c(cc1C(=O)N(C)C)CC[C@H]1C(C)(C)c3oc(C)nc3C[C@]21C	89.2%	70.1%		53.1%	
		COC(=O)c1noc2c1C[C@]1(C)c3cc(OC)ccc3CC[C@H]1C2(C)C	43.7%	34.8%	100%		
		COc1ccc2c(c1)[C@@]1(C)Cc3cnc(C)nc3C(C)(C)[C@@H]1CC2	76%	45.2%	98.5%		
		COc1ccc2c(c1)[C@@]1(C)Cc3nc(N)sc3C(C)(C)[C@@H]1CC2	35.8%	29.8%	98.2%		
	5.40	CC1(C)C(=O)CC[C@]2(C)[C@@H]1CC[C@@]13C[C@@H]4[C@@H](C[C@H]12)[C@]4(C(=O)O)C3					
		CCCOC(=O)c1noc2c1C[C@]1(C)c3cc(OC)ccc3CC[C@H]1C2(C)C	41.4%	34.8%	100%		
		COc1ccc2c(c1)[C@@]1(C)Cc3nccnc3C(C)(C)[C@@H]1CC2	66.9%	34.3%	98.2%		
6.48		COc1ccc2c(c1)[C@@]1(C)Cc3nc(C)oc3C(C)(C)[C@@H]1CC2	99.2%	75%	100%	42.9%	2
		COc1ccc2c(c1)[C@@]1(C)Cc3cnc(N)nc3C(C)(C)[C@@H]1CC2	64.6%	38.6%	96.2%		
		COc1cc2c(cc1C(=O)O)CC[C@H]1C(C)(C)c3oc(C)nc3C[C@]21C	67.8%	45.2%		22.6%	
		CNC(=O)c1noc2c1C[C@]1(C)c3cc(OC)ccc3CC[C@H]1C2(C)C	52.8%	28.6%	100%		
		CCC(=O)c1cc2c(cc1OC)[C@@]1(C)Cc3nc(C)oc3C(C)(C)[C@@H]1CC2	91.3%	64.1%		32.5%	
		CNC(=O)c1cc2c(cc1O)[C@@]1(C)Cc3nc(C)oc3C(C)(C)[C@@H]1CC2	96.6%	87.6%		64.1%	
		CCCNC(=O)c1cc2c(cc1OC)[C@@]1(C)Cc3nc(C)oc3C(C)(C)[C@@H]1CC2	100%	62.8%		38.1%	

pIC50 [4]	pIC50 [6]	SMILES	inhibition at 2 µM [1]	inhibition at 0.5 µM [2]	inhibition at 10 µM [3]	inhibition at 0.1 µM [5]	Ratio IC50 [7]
		CCOC(=O)c1noc2c1C[C@]1(C)c3cc(OC)ccc3CC[C@H]1C2(C)C	88.6%	49.5%	100%		
		COc1ccc2c(c1)[C@@]1(C)Cc3c(C(=O)O)noc3C(C)(C)[C@@H]1CC2	66.8%	55.1%	77.9%		
		COc1ccc2c(c1)[C@@]1(C)Cc3c[nH]nc3C(C)(C)[C@@H]1CC2	8.1%	4.3%	10.1%		
		CCNC(=O)c1cc2c(cc1OC)[C@@]1(C)Cc3nc(C)oc3C(C)(C)[C@@H]1CC2	98.2%	70%		56.1%	
		CCNC(=O)c1noc2c1C[C@]1(C)c3cc(OC)ccc3CC[C@H]1C2(C)C	42.4%	33.6%	84.3%		
6.20		CC1(C)CC[C@]2(C(=O)O)CC[C@]3(C)C(=CC[C@@H]4[C@@]5(C)C[C@@H](O)[C@H](O)C(C)(C)[C@@H]5CC[C@]43C)[C@@H]2C1 [MASLINIC ACID]	59.7%	48.6%	76.3%		
	4.82	CC1(C)[C@H](O)C(=O)C[C@]2(C)[C@@H]1CC[C@]13CC4C[C@](O)(C1)[C@@H]4C[C@H]32					
		CCCC(=O)c1cc2c(cc1OC)[C@@]1(C)Cc3nc(C)oc3C(C)(C)[C@@H]1CC2	83.6%	55.6%		30%	
		COc1ccc2c(c1)[C@@]1(C)Cc3cncnc3C(C)(C)[C@@H]1CC2	83%	51.1%	99.5%		
		COc1ccc2c(c1)[C@@]1(C)Cc3c([nH]c4ccccc34)C(C)(C)[C@@H]1CC2	74.3%	57.6%	88.9%		
	4.70	CC1(C)[C@H](O)CC[C@]2(C)[C@@H]1CC[C@]13CC4C[C@](O)(C1)[C@@H]4C[C@H]32					
		CCCCNC(=O)c1cc2c(cc1OC)[C@@]1(C)Cc3nc(C)oc3C(C)(C)[C@@H]1CC2	88.6%	37.8%		34.5%	
		COc1cc2c(cc1/C(C)=N/O)CC[C@H]1C(C)(C)c3oc(C)nc3C[C@]21C	70%	42.7%		26.9%	
		COc1ccc2c(c1)[C@@]1(C)Cc3c(n[nH]c3C(=O)O)C(C)(C)[C@@H]1CC2	57.2%	43.9%	56.1%		
		COc1cc2c(cc1C(N)=O)CC[C@H]1C(C)(C)c3oc(C)nc3C[C@]21C	57%	30.9%		10.2%	
		COc1cc2c(cc1N)CC[C@H]1C(C)(C)c3oc(C)nc3C[C@]21C	77.7%	54.8%		27.1%	
		CCOC(=O)c1[nH]nc2c1C[C@]1(C)c3cc(OC)ccc3CC[C@H]1C2(C)C	71.7%	61.6%	93.7%		
		COc1ccc2c(c1)[C@@]1(C)Cc3c(CO)noc3C(C)(C)[C@@H]1CC2	51.7%	43.4%	91.4%		
